Test results published in patent US12275684B2, “Methods for making and using endoxifen” (Atossa Therapeutics, Inc., priority 2017, dated 2025).

What was measured:
[1] = Accelerated 10-day stability study of solid (Z)-endoxifen free base (E/Z by HPLC); assay type: physicochemical; conditions: for (E)-endoxifen content / (Z)-endoxifen content / E/Z ratio / Total Impurity: solid
Experimental: HPLC-UV analyses of the samples was carried out using a Luna phenyl-hexyl column (4.6 mm×150 mm×3 μm of particle size). The column temperature was 40° C. and sample compartment temperature was maintained at ambient temperature. Samples were prepared by dissolving solids and filtrates at 0.2 mg/ml of sample in methanol as sample buffer. Samples were then injected into the column in an injection volume of 20 μl. Likewise, mildly acidic (pH 4.3) ammonium formate buffer/methanol in the mobile phase with gradient elution was used. Mobile phase system consisting of: Mobile Phase A (MPA) buffer was 10 mM HCOONH4 with 0.03% HCOOH buffer in water, and Mobile Phase B (MBP) buffer was 10 mM HCOONH4 in methanol with a gradient program used.
The run time was 30 m, the flow rate was 1.0 mL/m, and the delay time was 5 m. Samples were detected by UV detection at 243 nm. Retention times were typically from 12.95 to 13.20 m for (E)-endoxifen and from 14.0 to 14.33 m for (Z)-endoxifen. Relative Retention Time (RRT) for (E)-endoxifen was […] and 1.0 for (Z)-endoxifen.
The stability of (Z)-endoxifen free base Sample 1 of Table 11 was studied when stored at various temperatures in solid form and in ethanol (EtOH) solution. The (E)-endoxifen and (Z)-endoxifen levels were measured on days 2, 7 and 10 following placement of 1 g aliquots of purified (Z)-endoxifen free base in 180 mL HDPE bottles under dry N2, which were then placed in double LDPE bags. The double bagged HDPE bottles containing each sample were individually packed in aluminum foil bags and thermally sealed until they were opened for testing the stability of the samples. The (E)- and (Z)-isomers of endoxifen were monitored by HPLC as disclosed above. The purity of (Z)-endoxifen in solid form remained at about 97% at 40° C., 60° C., and 80° C. up to 10 days.

[2] = Bulk drug stability study of (Z)-endoxifen free base; assay type: physicochemical
Experimental: For bulk stability studies, ˜1 g aliquots of (Z)-endoxifen free base were placed inside individually in double LDPE bags tied with a nylon cable tie. The LDPE bags were then placed in aluminum foil bags and thermally sealed. The samples for stability were placed in tightly capped, 180 mL HDPE bottles under inert conditions (dry nitrogen) at 5° C. and 25° C./60% RH for 12 months, and at 40° C./75% RH for 3 months. The samples were tested for (E)-endoxifen and (Z)-endoxifen concentrations and impurities, moisture or water content by Karl Fischer titration, aerobic bacterial colony forming units and appearance at time points day 0, 10 days, 1 m and 3 m. Table 13 below provides bulk drug stability data at 9 m on endoxifen free base at varying storage conditions.

Which “purity of (Z)-endoxifen in solid form” value ([1]; 40° C., 60° C., and 80° C. up to 10 days) does the source give for `CC/C(=C(\c1ccc(O)cc1)c1ccc(OCCNC)cc1)c1ccccc1` [(Z)-Endoxifen, (Z)-4-(1-(4-(2-(methylamino)ethoxy)phenyl)-2-phenylbut-1-enyl) phenol] here?
The value was “about 97%”.

What about the “(E)-endoxifen content” value ([1]; 40° C., 2 days) of the same compound?
Its value is 1.27%.

What about the “(Z)-endoxifen content” value ([1]; 40° C., 2 days) of the same compound?
The value was 97.45%.

What about the E/Z ratio ([1]; 40° C., 2 days) of the same compound?
The E/Z ratio was 1/76.

What about the “Total Impurity” value ([1]; 40° C., 2 days) of the same compound?
Its value is 1.28%.

What about the “(E)-endoxifen content” value ([1]; 40° C., 7 days) of the same compound?
Its value is 1.2%.

What about the “(Z)-endoxifen content” value ([1]; 40° C., 7 days) of the same compound?
Its value is 97.11%.

What about the E/Z ratio ([1]; 40° C., 7 days) of the same compound?
The E/Z ratio was 1/81.

And the “Total Impurity” value ([1]; 40° C., 7 days)?
Its value is 1.69%.

And the “(E)-endoxifen content” value ([1]; 40° C., 10 days)?
The value was 1.29%.

What about the “(Z)-endoxifen content” value ([1]; 40° C., 10 days) of the same compound?
The value was 97.31%.

What about the E/Z ratio ([1]; 40° C., 10 days) of the same compound?
Its E/Z ratio is 1/75.

What about the “Total Impurity” value ([1]; 40° C., 10 days) of the same compound?
The value was 1.40%.

And the “(E)-endoxifen content” value ([1]; 60° C., 2 days)?
The value was 1.30%.

What about the “(Z)-endoxifen content” value ([1]; 60° C., 2 days) of the same compound?
The value was 97.43%.

What about the E/Z ratio ([1]; 60° C., 2 days) of the same compound?
The E/Z ratio was 1/75.

And the “Total Impurity” value ([1]; 60° C., 2 days)?
Its value is 1.27%.

What about the “(E)-endoxifen content” value ([1]; 60° C., 7 days) of the same compound?
The value was 1.17%.

What about the (Z)-endoxifen content ([1]; 60° C., 7 days) of the same compound?
Its (Z)-endoxifen content is 97.1%.

What about the E/Z ratio ([1]; 60° C., 7 days) of the same compound?
Its E/Z ratio is 1/83.

And the “Total Impurity” value ([1]; 60° C., 7 days)?
Its value is 1.72%.

And the “(E)-endoxifen content” value ([1]; 60° C., 10 days)?
Its value is 1.27%.

And the “(Z)-endoxifen content” value ([1]; 60° C., 10 days)?
Its value is 97.48%.

And the E/Z ratio ([1]; 60° C., 10 days)?
Its E/Z ratio is 1/82.

And the “Total Impurity” value ([1]; 60° C., 10 days)?
Its value is 1.33%.

And the “(E)-endoxifen content” value ([1]; 80° C., 2 days)?
Its value is 1.28%.

What about the “(Z)-endoxifen content” value ([1]; 80° C., 2 days) of the same compound?
The value was 97.42%.

What about the E/Z ratio ([1]; 80° C., 2 days) of the same compound?
Its E/Z ratio is 1/76.

What about the “Total Impurity” value ([1]; 80° C., 2 days) of the same compound?
Its value is 1.30%.

What about the “(E)-endoxifen content” value ([1]; 80° C., 7 days) of the same compound?
Its value is 1.34%.

And the “(Z)-endoxifen content” value ([1]; 80° C., 7 days)?
The value was 96.92%.

And the E/Z ratio ([1]; 80° C., 7 days)?
Its E/Z ratio is 1/72.

And the “Total Impurity” value ([1]; 80° C., 7 days)?
Its value is 1.74%.

What about the “(E)-endoxifen content” value ([1]; 80° C., 10 days) of the same compound?
Its value is 1.27%.

And the “(Z)-endoxifen content” value ([1]; 80° C., 10 days)?
The value was 97.33%.

What about the E/Z ratio ([1]; 80° C., 10 days) of the same compound?
The E/Z ratio was 1/77.

And the “Total Impurity” value ([1]; 80° C., 10 days)?
The value was 1.40%.

What about the “interconversion of (Z)- to (E)-endoxifen in solid form” value ([1]; tested temperatures up to 10 days) of the same compound?
Its value is “does not interconvert to (E)-endoxifen”.

What about the “time for which stable” value ([2]; 40° C./75% RH) of the same compound?
The value was “at least 3 months”.

And the “(Z)-endoxifen USP <921≥ Plate Count” value ([2]; Storage 5° C.)?
Its value is 13990 cfu g/mL.

And the “(E)-endoxifen content” value ([2]; Storage 5° C., 0 m)?
Its value is 0.19%.

And the “(Z)-endoxifen % Purity” value ([2]; Storage 5° C., 0 m)?
The value was 99.5%.

What about the “Max Indiv. Impurity” value ([2]; Storage 5° C., 0 m) of the same compound?
The value was 0.11%.

What about the “Water content (Karl Fischer)” value ([2]; Storage 5° C., 0 m) of the same compound?
Its value is 0.06%.

What about the “(E)-endoxifen content” value ([2]; Storage 5° C., 3 m) of the same compound?
Its value is 0.17%.

And the “(Z)-endoxifen % Purity” value ([2]; Storage 5° C., 3 m)?
Its value is 99.6%.

What about the “Max Indiv. Impurity” value ([2]; Storage 5° C., 3 m) of the same compound?
Its value is 0.10%.

What about the “Water content (Karl Fischer)” value ([2]; Storage 5° C., 3 m) of the same compound?
The value was 0.05%.

And the “(E)-endoxifen content” value ([2]; Storage 5° C., 6 m)?
The value was 0.18%.

What about the “(Z)-endoxifen % Purity” value ([2]; Storage 5° C., 6 m) of the same compound?
Its value is 99.5%.

And the “Max Indiv. Impurity” value ([2]; Storage 5° C., 6 m)?
Its value is 0.11%.

And the “Water content (Karl Fischer)” value ([2]; Storage 5° C., 6 m)?
Its value is 0.05%.

And the “(E)-endoxifen content” value ([2]; Storage 5° C., 9 m)?
The value was 0.19%.

And the “(Z)-endoxifen % Purity” value ([2]; Storage 5° C., 9 m)?
Its value is 99.5%.

What about the “Max Indiv. Impurity” value ([2]; Storage 5° C., 9 m) of the same compound?
The value was 0.11%.

And the “Water content (Karl Fischer)” value ([2]; Storage 5° C., 9 m)?
The value was 0.05%.

What about the “(Z)-endoxifen USP <921≥ Plate Count” value ([2]; Storage 25° C./60% RH) of the same compound?
The value was 14030 cfu g/mL.

What about the “(E)-endoxifen content” value ([2]; Storage 25° C./60% RH, 0 m) of the same compound?
Its value is 0.19%.

What about the “(Z)-endoxifen % Purity” value ([2]; Storage 25° C./60% RH, 0 m) of the same compound?
The value was 99.5%.

And the “Max Indiv. Impurity” value ([2]; Storage 25° C./60% RH, 0 m)?
Its value is 0.11%.

What about the “Water content (Karl Fischer)” value ([2]; Storage 25° C./60% RH, 0 m) of the same compound?
The value was 0.06%.

And the “(E)-endoxifen content” value ([2]; Storage 25° C./60% RH, 3 m)?
Its value is 0.17%.

What about the “(Z)-endoxifen % Purity” value ([2]; Storage 25° C./60% RH, 3 m) of the same compound?
The value was 99.6%.

And the “Max Indiv. Impurity” value ([2]; Storage 25° C./60% RH, 3 m)?
The value was 0.11%.

And the “Water content (Karl Fischer)” value ([2]; Storage 25° C./60% RH, 3 m)?
The value was 0.05%.

And the “(E)-endoxifen content” value ([2]; Storage 25° C./60% RH, 6 m)?
The value was 0.18%.

What about the “(Z)-endoxifen % Purity” value ([2]; Storage 25° C./60% RH, 6 m) of the same compound?
The value was 99.5%.

And the “Max Indiv. Impurity” value ([2]; Storage 25° C./60% RH, 6 m)?
Its value is 0.11%.

What about the “Water content (Karl Fischer)” value ([2]; Storage 25° C./60% RH, 6 m) of the same compound?
The value was 0.06%.

And the “(E)-endoxifen content” value ([2]; Storage 25° C./60% RH, 9 m)?
Its value is 0.19%.

What about the “(Z)-endoxifen % Purity” value ([2]; Storage 25° C./60% RH, 9 m) of the same compound?
The value was 99.5%.

What about the “Max Indiv. Impurity” value ([2]; Storage 25° C./60% RH, 9 m) of the same compound?
Its value is 0.11%.

And the “Water content (Karl Fischer)” value ([2]; Storage 25° C./60% RH, 9 m)?
Its value is 0.07%.

And the “(Z)-endoxifen USP <921≥ Plate Count” value ([2]; Storage 40° C./75% RH)?
Its value is 13776 cfu g/mL.

And the “(E)-endoxifen content” value ([2]; Storage 40° C./75% RH, 0 m)?
Its value is 0.19%.

And the “(Z)-endoxifen % Purity” value ([2]; Storage 40° C./75% RH, 0 m)?
Its value is 99.5%.

And the “Max Indiv. Impurity” value ([2]; Storage 40° C./75% RH, 0 m)?
Its value is 0.11%.

And the “Water content (Karl Fischer)” value ([2]; Storage 40° C./75% RH, 0 m)?
Its value is 0.06%.

And the “(E)-endoxifen content” value ([2]; Storage 40° C./75% RH, 3 m)?
Its value is 0.17%.

What about the “(Z)-endoxifen % Purity” value ([2]; Storage 40° C./75% RH, 3 m) of the same compound?
Its value is 99.5%.

What about the “Max Indiv. Impurity” value ([2]; Storage 40° C./75% RH, 3 m) of the same compound?
The value was 0.11%.

What about the “Water content (Karl Fischer)” value ([2]; Storage 40° C./75% RH, 3 m) of the same compound?
Its value is 0.07%.

And the “time for which stable” value ([2]; ambient temperature)?
The value was “at least 9 months”.

What about the “time for which stable” value ([2]; solid, 5° C.) of the same compound?
Its value is “at least 9 months”.

And the “time for which stable” value ([2]; solid, 25° C./60% RH)?
The value was “at least 9 months”.

And the “aerobic bacterial plate count TAC” value ([2]; storage conditions studied)?
The value was “less than 20,000 cfu g/mL”.

And the water content ([2]; storage conditions studied)?
Its water content is “not more than 1%”.
